Experimental findings from PubChem BioAssay (NCI) are described below.

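Compound exposure: 48 hours, 5 concentrations, 96-well plates. GI50 marks 50% less growth. TGI denotes the concentration required for complete inhibition of growth.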

Among the test systems are TK-10 renal; NCI-H460 lung; SF-268 CNS; IGROV1 ovarian; UO-31 renal; HCT-116 colon; CAKI-1 renal; UACC-62 melanoma; SK-MEL-28 melanoma.
Holding throughout (assay): inhibition of tumour cell growth, NCI panel, 48 h

With `N#CC(C#N)=C1SCC(=O)CS1`, the TGI in the assay with TK-10 renal, with NCI-H460 lung, with SF-268 CNS, in the assay with IGROV1 ovarian, with UO-31 renal and in the assay on HCT-116 colon was > 100 µM in each case. The TGI in the assay with CAKI-1 renal and in the assay on UACC-62 melanoma was > 100 µM throughout.
As for `CC1(C)C2C/C(=C\c3ccccc3)C(=O)C1C2` (stereo not given), the TGI with TK-10 renal, in the assay with NCI-H460 lung, in the assay on SF-268 CNS, with IGROV1 ovarian, with UO-31 renal and in the assay on HCT-116 colon was > 100 µM throughout. The TGI in the assay on CAKI-1 renal, in the assay with UACC-62 melanoma and with SK-MEL-28 melanoma was > 100 µM in each case.
Consider `Cn1c(=O)c(C(=O)NC(=O)OCc2ccccc2)cn(CCSCCOC(=O)NCCCCCCNC(=O)OCCSCCn2cc(C(=O)NC(=O)OCc3ccccc3)c(=O)n(C)c2=O)c1=O`, for which the TGI in the assay with TK-10 renal, in the assay with NCI-H460 lung, in the assay with SF-268 CNS, with IGROV1 ovarian, with UO-31 renal and in the assay with HCT-116 colon was > 100 µM throughout. Besides, the TGI in the assay with UACC-62 melanoma and in the assay with SK-MEL-28 melanoma was > 100 µM each time.
Regarding `Cc1cccc2c1C/C(=C1\CCc3c(C)cccc31)C2=O`, the TGI in the assay on TK-10 renal, with NCI-H460 lung, with SF-268 CNS, with IGROV1 ovarian, in the assay on UO-31 renal and in the assay on HCT-116 colon was > 100 µM each time. For the same compound, the TGI with CAKI-1 renal, with UACC-62 melanoma and in the assay on SK-MEL-28 melanoma was > 100 µM throughout.
Turning to `Cc1cc(=O)oc2cc(OCc3nc4ccccc4c(=O)[nH]3)ccc12`, the TGI in the assay on TK-10 renal, with NCI-H460 lung, with SF-268 CNS, in the assay with IGROV1 ovarian, in the assay with HCT-116 colon and in the assay on CAKI-1 renal was > 100 µM throughout. The TGI in the assay with UACC-62 melanoma and in the assay on SK-MEL-28 melanoma was > 100 µM throughout.
For the compound `CCOc1ccccc1NC(=O)C1=C(C)NC(C)=C(C(=O)Nc2ccccc2OCC)C1c1ccc(NC(C)=O)cc1`, the TGI in the assay with TK-10 renal, with NCI-H460 lung, with SF-268 CNS, in the assay on IGROV1 ovarian, in the assay on UO-31 renal and in the assay with CAKI-1 renal was > 100 µM in each case. In addition, the TGI in the assay on SK-MEL-28 melanoma was > 100 µM.
Turning to `Cc1cccc2c1C(=O)OC2(C)c1cccc2ccccc12` (stereo not given), the TGI in the assay on TK-10 renal is 95.2 µM; in the assay with NCI-H460 lung, > 100 µM; in the assay on SF-268 CNS it was > 100 µM; in the assay on UO-31 renal it was > 100 µM; in the assay with CAKI-1 renal it was > 100 µM; in the assay with SK-MEL-28 melanoma, > 100 µM.
For the compound `C/C(=C\CC[C@]1(C)OC(C)(C)OC1CC/C(C)=C/CO[Si](c1ccccc1)(c1ccccc1)C(C)(C)C)CC/C=C/CO[Si](C)(C)C(C)(C)C` (stereo not given in full), the TGI in the assay with TK-10 renal, in the assay with NCI-H460 lung, in the assay on SF-268 CNS, with IGROV1 ovarian, with UO-31 renal and in the assay on HCT-116 colon was > 100 µM each time. For the same compound, the TGI in the assay with CAKI-1 renal, in the assay with UACC-62 melanoma and with SK-MEL-28 melanoma was > 100 µM in each case.
In the case of `c1ccc(SC(CCCCOC2CCCCO2)Sc2ccccc2)cc1` (stereo not given), the TGI is > 100 µM with TK-10 renal; > 100 µM in the assay on NCI-H460 lung; > 100 µM in the assay on SF-268 CNS; > 100 µM with IGROV1 ovarian; 76.5 µM with UO-31 renal; > 100 µM with HCT-116 colon. Also, the TGI with CAKI-1 renal, in the assay on UACC-62 melanoma and with SK-MEL-28 melanoma was > 100 µM in each case.
For `Cc1ccc(/C=C2\CCCC\C2=N\O)cc1`, the TGI in the assay on TK-10 renal was > 100 µM; with NCI-H460 lung, > 100 µM; in the assay on SF-268 CNS, > 100 µM; in the assay on IGROV1 ovarian, > 100 µM; with UO-31 renal it was 84 µM; in the assay with HCT-116 colon, > 100 µM. The TGI in the assay on CAKI-1 renal, in the assay on UACC-62 melanoma and with SK-MEL-28 melanoma was > 100 µM in each case.
In the case of `C[CH2][Sn]([CH2]C)([O]C(=O)c1cccc(F)c1)[O][Sn]([CH2]C)([CH2]C)[O]C(=O)c1cccc(F)c1`, the GI50 was 19.6 µM in the assay with TK-10 renal; 33.8 µM with NCI-H460 lung; 17.9 µM with SF-268 CNS; > 100 µM with IGROV1 ovarian; 49.8 µM in the assay on UO-31 renal; 17.8 µM with HCT-116 colon. The values for the GI50 with CAKI-1 renal, in the assay on UACC-62 melanoma and with SK-MEL-28 melanoma were 11.7 µM, 18.4 µM and 16.7 µM, respectively. The TGI in the assay with TK-10 renal was 33.8 µM; in the assay with NCI-H460 lung, > 100 µM; with SF-268 CNS, 32.9 µM; in the assay with IGROV1 ovarian it was > 100 µM; in the assay on UO-31 renal it was > 100 µM; in the assay with HCT-116 colon, 32.5 µM. For the same compound, the TGI is 24.1 µM in the assay with CAKI-1 renal, 32.7 µM in the assay on UACC-62 melanoma and 30.5 µM in the assay with SK-MEL-28 melanoma.
Take `CC1=Nn2c(nnc2-c2ccc(N)cc2)NC(C)(C)C1`: the TGI with TK-10 renal, in the assay with NCI-H460 lung, in the assay with SF-268 CNS, with IGROV1 ovarian, in the assay on UO-31 renal and in the assay on CAKI-1 renal was > 100 µM each time. Moreover, the TGI in the assay on UACC-62 melanoma and in the assay with SK-MEL-28 melanoma was > 100 µM throughout.
As to `O=C(/C=C1/NC(=O)CS1)Nc1ccccc1`, the TGI with TK-10 renal, in the assay with NCI-H460 lung, in the assay with SF-268 CNS, in the assay on IGROV1 ovarian, with UO-31 renal and in the assay on HCT-116 colon was > 100 µM in each case. The TGI in the assay on CAKI-1 renal, with UACC-62 melanoma and in the assay on SK-MEL-28 melanoma was > 100 µM in each case.
For `O=C1C[C@@H]2CCCC[C@@H]2C12SCCS2`, the TGI in the assay with TK-10 renal, in the assay with NCI-H460 lung, in the assay with SF-268 CNS, in the assay with IGROV1 ovarian, in the assay on UO-31 renal and in the assay on HCT-116 colon was > 100 µM throughout. For the same compound, the TGI in the assay with CAKI-1 renal, in the assay with UACC-62 melanoma and in the assay with SK-MEL-28 melanoma was > 100 µM throughout.
In the case of `N#C[S-].[Au+].c1ccc(CN2[CH-]N(Cc3ccccc3)C(c3ccccc3)=C2c2ccccc2)cc1`, in the assay on TK-10 renal, the GI50 is 0.583 µM and the TGI came to 1.98 µM. Also, in the assay on SF-268 CNS, the GI50 is 0.431 µM and the TGI stood at 2.49 µM.
For `NC(CCSC(F)F)C(=O)O` (stereo not given), the TGI in the assay with TK-10 renal, with NCI-H460 lung, with SF-268 CNS, with IGROV1 ovarian, in the assay with UO-31 renal and in the assay with HCT-116 colon was > 100 µM each time. Besides, the TGI in the assay with CAKI-1 renal, in the assay with UACC-62 melanoma and with SK-MEL-28 melanoma was > 100 µM each time.
Consider `COc1ccc2c(c1)CC1c3c(cc4c(c3-2)OCO4)CCN1C` (stereo not given), for which the TGI was 71.3 µM with TK-10 renal; 60.4 µM with NCI-H460 lung; 85.8 µM with IGROV1 ovarian; 36.6 µM with UO-31 renal; 70.6 µM with HCT-116 colon; 60.2 µM in the assay with CAKI-1 renal. Moreover, the TGI in the assay with UACC-62 melanoma is 47.6 µM; with SK-MEL-28 melanoma, 95.8 µM.
Regarding `C=CCN=C1NC(=O)C(CC(=O)Nc2ccc(C)cc2)S1` (stereo not given), the TGI in the assay on TK-10 renal, in the assay with NCI-H460 lung, in the assay on SF-268 CNS, in the assay on IGROV1 ovarian, in the assay with UO-31 renal and in the assay on CAKI-1 renal was > 100 µM in each case. Further, the TGI in the assay with UACC-62 melanoma and with SK-MEL-28 melanoma was > 100 µM in each case.
`CC12CC3CC(C1)CC(N=[N+]=[N-])(C3)C2`: the TGI in the assay with TK-10 renal, in the assay on NCI-H460 lung, in the assay on IGROV1 ovarian, in the assay with UO-31 renal, in the assay with HCT-116 colon and with CAKI-1 renal was > 100 µM in each case. For the same compound, the TGI with UACC-62 melanoma and in the assay with SK-MEL-28 melanoma was > 100 µM in each case.
For `COc1cc(C(=O)CC2(O)C(=O)Nc3c(Cl)cc(Cl)cc32)ccc1O` (stereo not given), the TGI in the assay with TK-10 renal, with NCI-H460 lung, in the assay with SF-268 CNS, in the assay with UO-31 renal, in the assay with CAKI-1 renal and in the assay with SK-MEL-28 melanoma was > 100 µM each time.
`CCOC(=O)NC(=O)c1cn(CCN2CCN(C(=O)NCCCCCCNC(=O)N3CCN(CCn4cc(C(=O)NC(=O)OCC)c(=O)n(CCN(CC)CC)c4=O)CC3)CC2)c(=O)n(CCC(CC)CC)c1=O`: the TGI in the assay with TK-10 renal, in the assay on NCI-H460 lung, in the assay on SF-268 CNS, in the assay with IGROV1 ovarian, in the assay with UO-31 renal and in the assay on HCT-116 colon was > 100 µM throughout. Also, the TGI in the assay with UACC-62 melanoma and in the assay with SK-MEL-28 melanoma was > 100 µM each time.
On to `COc1cc([C@@H]2OC(=O)C3C2C(=O)O[C@H]3c2cc(OC)c(OC)c(OC)c2)cc(OC)c1OC` (stereo not given in full), for which the TGI in the assay on TK-10 renal, in the assay with NCI-H460 lung, in the assay on SF-268 CNS, in the assay on IGROV1 ovarian, in the assay on UO-31 renal and in the assay on HCT-116 colon was > 100 µM each time. In addition, the TGI with UACC-62 melanoma and in the assay with SK-MEL-28 melanoma was > 100 µM in each case.
